Assay results published in paper PMC3112249 (Cancer chemotherapy and pharmacology, 2011).

Experiments:
[1] = cited from earlier work
[2] = 107 male patients, paclitaxel 100 mg/m^2 intravenously over 3 hours every 2 weeks, 77% received protease inhibitors; cited from earlier work
[3] = assay type: in vivo, human; details: paclitaxel 100 mg/m^2 IV over 3 h, cycle 1; patients taking protease inhibitors
[4] = tested on: HIV-associated Kaposi's sarcoma; experiment: Objective response, progression-free survival and survival on paclitaxel; assay type: in vivo, human
[5] = 20 evaluable patients, no prior paclitaxel, 100 mg/m^2 IV every 14 days

COc1cccc2c1C(=O)c1c(O)c3c(c(O)c1C2=O)C[C@@](O)(C(=O)CO)C[C@@H]3O[C@H]1C[C@H](N)[C@H](O)[C@H](C)O1 [doxorubicin]
effects on clearance ([1]; human, in vivo): No significant effects

O=P1(N(CCCl)CCCl)NCCCO1 (centres unmarked) [cyclophosphamide]
clearance reduced compared to historical controls ([1]; 29 patients receiving CHOP chemotherapy with HAART): 1.5 fold

CC(=O)O[C@H]1C(=O)[C@@]2(C)[C@H]([C@H](OC(=O)c3ccccc3)[C@]3(O)C[C@H](OC(=O)[C@H](O)[C@@H](NC(=O)c4ccccc4)c4ccccc4)C(C)=C1C3(C)C)[C@]1(OC(C)=O)CO[C@@H]1C[C@@H]2O [Paclitaxel]
differences in the incidence or severity of toxicity, patients receiving protease inhibitors compared to those who did not [2]: No differences | duration spent at a paclitaxel concentration > 0.05 μM [3]: 19.0 (3.0–27.8) hr | treatment-related infection of grade 3 or higher, patients (20 patients, paclitaxel as first line therapy): 15% | Infection Grade 3, patients no. (%) (PI (n=15)): 3 (20%) | Abdominal cramps Grade 3, patients no. (%) (human, in vivo): 1 (7%) | Anemia Grade 3, patients no. (%) (human, in vivo): 2 (13%) | Anemia Grade 4, patients no. (%) (human, in vivo): 1 (7%) | Cardiac toxicity Grade 4, patients no. (%) (human, in vivo): 1 (5%) | Eye irritation Grade 3, patients no. (%) (human, in vivo): 1 (7%) | Fatigue Grade 3, patients no. (%) (human, in vivo): 2 (13%) | GU toxicity Grade 3, patients no. (%) (human, in vivo): 1 (7%) | Granulocytopenia Grade 3, patients no. (%) (human, in vivo): 3 (20%) | Ileus Grade 4, patients no. (%) (human, in vivo): 1 (7%) | Leukopenia Grade 4, patients no. (%) (human, in vivo): 1 (20%) | Liver toxicity Grade 3, patients no. (%) (human, in vivo): 1 (7%) | Liver toxicity Grade 4, patients no. (%) (human, in vivo): 1 (7%) | Metabolic toxicity Grade 3, patients no. (%) (human, in vivo): 1 (7%) | Metabolic toxicity Grade 4, patients no. (%) (human, in vivo): 1 (7%) | Neuro-motor toxicity Grade 3, patients no. (%) (human, in vivo): 1 (7%) | Pulmonary toxicity Grade 3, patients no. (%) (human, in vivo): 1 (7%) | Pulmonary toxicity Grade 4, patients no. (%) (human, in vivo): 1 (20%) | Skin toxicity Grade 3, patients no. (%) (human, in vivo): 1 (20%) | Thrombocytopenia Grade 4, patients no. (%) (human, in vivo): 1 (7%) | WORST DEGREE of toxicity Grade 3, patients no. (%) (human, in vivo): 7 (47%) | treatment-related anemia of grade 3 or higher, patients (human, in vivo): 15% | treatment-related granulocytopenia of grade 3 or higher, patients (human, in vivo): 40% | best response: partial response, patients [4, 5]: 30% | best response: progressive disease, patients [4, 5]: 10% | best response: stable disease (SD), patients [4, 5]: 50% | objective response, patients ([4]; 20 patients assessable for response): 30% | three year survival rate ([4]; 20 patients, no prior paclitaxel): 67% | median progression free survival ([4]; 20 patients, no prior paclitaxel, 100 mg/m^2 IV every 14 days): 7.8 months | median overall survival ([4]; 20 patients, no prior paclitaxel, median follow-up of 50 months in the 13 surviving patients): had not been reached
